{"source": "PubChem BioAssay (NCI)", "assay_in_all_cases": "inhibition of tumour cell growth, NCI panel, 48 h", "key": {"[1]": {"test_system": "SF-268 CNS"}, "[2]": {"test_system": "SK-MEL-28 melanoma"}, "[3]": {"test_system": "SR leukemia"}, "[4]": {"test_system": "HCT-116 colon"}, "[5]": {"test_system": "NCI-H460 lung"}, "[6]": {"test_system": "U251 CNS"}, "[7]": {"test_system": "DU-145 prostate"}, "[8]": {"test_system": "PC-3 prostate"}, "[9]": {"test_system": "SNB-75 CNS"}, "[10]": {"test_system": "TK-10 renal"}, "[11]": {"test_system": "HOP-92 NSCLC"}, "[12]": {"test_system": "SF-295 CNS"}, "[13]": {"test_system": "OVCAR-3 ovarian"}, "[14]": {"test_system": "OVCAR-8 ovarian"}, "[15]": {"test_system": "BT-549 breast"}, "[16]": {"test_system": "NCI-H226 lung"}, "[17]": {"test_system": "M14 melanoma"}, "[18]": {"test_system": "A549 NSCLC"}, "[19]": {"test_system": "UACC-62 melanoma"}, "[20]": {"test_system": "COLO 205 colon"}, "[21]": {"test_system": "SNB-19 CNS"}, "[22]": {"test_system": "RPMI-8226 leukemia"}, "[23]": {"test_system": "NCI-H522 lung"}, "[24]": {"test_system": "HL-60(TB) leukemia"}, "[25]": {"test_system": "HS 578T breast"}, "[26]": {"test_system": "SN12C renal"}, "[27]": {"test_system": "MDA-MB-231 breast"}, "[28]": {"test_system": "MCF7 breast"}, "[29]": {"test_system": "MDA-MB-435"}}, "note": "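These data come from cells grown in 96-well plates and exposed to compound for 48 hours at five concentrations. The concentration for 50% growth inhibition is given as GI50. TGI marks complete inhibition of growth.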", "data": [{"smiles": "CCCCN(CCCC)CC(O)c1ccc(OCc2ccccc2)c2ccccc12", "note": "(stereo not drawn)", "values": [{"measurement": "GI50", "setting": "[1]", "result": 7.07, "unit": "µM"}, {"measurement": "TGI", "setting": "[1]", "result": 24.2, "unit": "µM"}, {"measurement": "GI50", "setting": "[2]", "result": 6.08, "unit": "µM"}, {"measurement": "TGI", "setting": "[2]", "result": 18.8, "unit": "µM"}, {"measurement": "GI50", "setting": "[3]", "result": 2.75, "unit": "µM"}, {"measurement": "TGI", "setting": "[3]", "result": 8.4, "unit": "µM"}, {"measurement": "GI50", "setting": "[4]", "result": 2.84, "unit": "µM"}, {"measurement": "TGI", "setting": "[4]", "result": 11.7, "unit": "µM"}, {"measurement": "GI50", "setting": "[5]", "result": 3.11, "unit": "µM"}, {"measurement": "TGI", "setting": "[5]", "result": 10.5, "unit": "µM"}, {"measurement": "GI50", "setting": "[6]", "result": 4.88, "unit": "µM"}, {"measurement": "TGI", "setting": "[6]", "result": 17.1, "unit": "µM"}, {"measurement": "GI50", "setting": "[7]", "result": 8.63, "unit": "µM"}, {"measurement": "TGI", "setting": "[7]", "result": 22.6, "unit": "µM"}, {"measurement": "GI50", "setting": "[8]", "result": 2.9, "unit": "µM"}, {"measurement": "TGI", "setting": "[8]", "result": 15.6, "unit": "µM"}, {"measurement": "GI50", "setting": "[9]", "result": 3.6, "unit": "µM"}, {"measurement": "TGI", "setting": "[9]", "result": 15.8, "unit": "µM"}, {"measurement": "GI50", "setting": "[10]", "result": 2.15, "unit": "µM"}, {"measurement": "TGI", "setting": "[10]", "result": 5.24, "unit": "µM"}, {"measurement": "GI50", "setting": "[11]", "result": 1.87, "unit": "µM"}, {"measurement": "TGI", "setting": "[11]", "result": 6.27, "unit": "µM"}, {"measurement": "GI50", "setting": "[12]", "result": 3.13, "unit": "µM"}, {"measurement": "TGI", "setting": "[12]", "result": 11.6, "unit": "µM"}, {"measurement": "GI50", "setting": "[13]", "result": 4.9, "unit": "µM"}, {"measurement": "TGI", "setting": "[13]", "result": 18.3, "unit": "µM"}, {"measurement": "GI50", "setting": "[14]", "result": 11, "unit": "µM"}, {"measurement": "TGI", "setting": "[14]", "result": 24.4, "unit": "µM"}, {"measurement": "GI50", "setting": "[15]", "result": 5.32, "unit": "µM"}, {"measurement": "TGI", "setting": "[15]", "result": 17.2, "unit": "µM"}, {"measurement": "GI50", "setting": "[16]", "result": 4.03, "unit": "µM"}, {"measurement": "TGI", "setting": "[16]", "result": 16.7, "unit": "µM"}, {"measurement": "GI50", "setting": "[17]", "result": 3.13, "unit": "µM"}, {"measurement": "TGI", "setting": "[17]", "result": 11.4, "unit": "µM"}, {"measurement": "GI50", "setting": "[18]", "result": 8.45, "unit": "µM"}, {"measurement": "TGI", "setting": "[18]", "result": 22.4, "unit": "µM"}, {"measurement": "GI50", "setting": "[19]", "result": 2.33, "unit": "µM"}, {"measurement": "TGI", "setting": "[19]", "result": 11.2, "unit": "µM"}, {"measurement": "GI50", "setting": "[20]", "result": 2.98, "unit": "µM"}, {"measurement": "TGI", "setting": "[20]", "result": 12.1, "unit": "µM"}, {"measurement": "GI50", "setting": "[21]", "result": 3.79, "unit": "µM"}, {"measurement": "TGI", "setting": "[21]", "result": 16.3, "unit": "µM"}, {"measurement": "GI50", "setting": "[22]", "result": 2.22, "unit": "µM"}, {"measurement": "TGI", "setting": "[22]", "result": 5.81, "unit": "µM"}, {"measurement": "GI50", "setting": "[23]", "result": 1.72, "unit": "µM"}, {"measurement": "TGI", "setting": "[23]", "result": 4.37, "unit": "µM"}, {"measurement": "GI50", "setting": "[24]", "result": 2.51, "unit": "µM"}, {"measurement": "TGI", "setting": "[24]", "result": 8.25, "unit": "µM"}, {"measurement": "GI50", "setting": "[25]", "result": 4.99, "unit": "µM"}, {"measurement": "TGI", "setting": "[25]", "result": 30.9, "unit": "µM"}, {"measurement": "GI50", "setting": "[26]", "result": 3.25, "unit": "µM"}, {"measurement": "TGI", "setting": "[26]", "result": 14.9, "unit": "µM"}, {"measurement": "GI50", "setting": "[27]", "result": 2.28, "unit": "µM"}, {"measurement": "TGI", "setting": "[27]", "result": 7.92, "unit": "µM"}, {"measurement": "GI50", "setting": "[28]", "result": 3.19, "unit": "µM"}, {"measurement": "TGI", "setting": "[28]", "result": 10.9, "unit": "µM"}, {"measurement": "GI50", "setting": "[29]", "result": 3.17, "unit": "µM"}, {"measurement": "TGI", "setting": "[29]", "result": 14, "unit": "µM"}]}]}
